Measured values taken from US20060003974A1, “Bile acid derived steroidal dimers with amphiphilic topology having antiproliferative activity” (COUNCIL OF SCIENTIFIC AND INDUSTRIAL RESEARCH, priority 2004, published 2006).

What was measured:
[1] = test system: Human oral squamous carcinoma HEp-2; experiment: MTT cell proliferation assay, HEp-2 cells; type: cell-based; details: for IC50: Homo sapiens, 72 h treatment, MTT, read-out: IC50, reduction in proliferation
Experimental: (§1) Antiproliferative Activity, Materials and methods: Human oral squamous carcinoma HEp-2 and human mammary adenocarcinoma (MCF-7) cell lines were obtained from National Centre for Cell Science, Pune, India. Cells were maintained as a monolayer in nutrient media MEM supplemented with heat inactivated fetal bovine serum (HyClone, Utah, USA) (10%), penicillin (100 U/ml) and streptomycin (100 μg/ml) (Invitrogen Life Technologies, MD, USA). The cells were grown at 37° C. in 5% CO2 and humidified air atmosphere. Stock solutions of all the compounds were prepared in DMSO at a concentration of 10-11.5 mM and afterwards diluted to the required concentration. The 3-(4,5-dimethylthiazol-2-yl)-2,5-diphenyltetrazolium bromide (MTT) was dissolved (1 mg/ml) in MEM (without phenol red) and filtered through a Millipore filter, 0.22 μm, before use. MTT Cell Proliferation Assay: (HEp-2) and (MCF-7) cells were plated at a density of 15,000 cells per well in 96 well tissue culture plates. Cells were allowed to adhere for 24 h at 37° C. and then treated with various concentrations (0, 0.1, 1.0, and 10 μM) of compounds dissolved in DMSO for additional 72 h, in triplicates. In the control wells nutrient medium with correspondent concentration of DMSO only was added to the cells. Thereafter cell proliferation was assessed by replacing treatment medium with 50 μL media containing 1 mg/mL MTT and incubated for 4 h at 37° C. Medium was then aspirated off and formazan crystals were solubilized in […] of isopropanol. The optical density was read on a microplate reader at 570 nm using 630 nm as a reference filter against a blank prepared from cell free wells. Absorbance given by cells treated with the carrier DMSO alone was taken as 100% cell growth. All assays were performed in triplicates. Antiproliferative Activity. The antiproliferative activity of both the compounds 2 and 3 were tested against human cancer cells, HEp-2 and MCF-7 which were grown in vitro. Compound (2) up to a concentration of 10 μM had no effect on the survival of HEp-2 and MCF-7 cells. […] IC50 value for compound (2) was between 2-3 μM.

[2] = test system: human mammary adenocarcinoma (MCF-7); experiment: MTT cell proliferation assay, MCF-7 cells; type: cell-based; details: for IC50: Homo sapiens, MCF7, 72 h treatment, MTT, read-out: IC50, reduction in proliferation
Experimental: as §1

SMILES | reduction in proliferation ([1]; 0.1-10 μM, 72 h) | IC50 [1] [nM] | growth inhibition at 10 μM ([1]; at 10 μM concentration, 72 h) | reduction in proliferation ([2]; 0.1-10 μM, 72 h) | IC50 [2] [nM] | growth inhibition at 10 μM ([2]; at 10 μM concentration, 72 h) | melting point [°C] | effect on survival of cells ([1]; up to a concentration of 10 μM) | effect on survival of cells ([2]; up to a concentration of 10 μM)
C[C@H](CCC(=O)NCCNC(=O)CC[C@@H](C)[C@H]1CCC2C3CCC4C[C@H](O)CC[C@]4(C)C3C[C@H](O)[C@@]21C)[C@H]1CCC2C3CCC4C[C@H](O)CC[C@]4(C)C3C[C@H](O)[C@@]21C (stereo partly drawn) [Compound 3, N^1,N^2-Ethylenediamine bis [deoxycholic acid amide]] | significant reduction | 2000 to 4000 | totally inhibited | significant reduction | 2000 to 4000 | totally inhibited | 170 | – | –
C[C@H](CCC(=O)NCCNC(=O)CC[C@@H](C)[C@H]1CCC2C3C(C[C@H](O)[C@@]21C)[C@@]1(C)CC[C@@H](O)CC1C[C@H]3O)[C@H]1CCC2C3C(C[C@H](O)[C@@]21C)[C@@]1(C)CC[C@@H](O)CC1C[C@H]3O (stereo partly drawn) [Compound 2, N^1,N^2-Ethylenediamine bis [cholic acid amide]] | – | 2000 to 3000 | – | – | 2000 to 3000 | – | 205 | no effect | no effect
